The NIST ThermoML archive (doi:10.1016/j.jct.2012.01.004)
“And” between values parts separate entries of the source, which are not always exact repeats. Identical values can stand only once. ± gives the expanded uncertainty stated by the source.

Columns and labels:
[1] = activity coefficient (dimensionless); of the first substance listed, at infinite dilution; xn = mol fraction of the nth substance listed; details: Gas, Chromatography, x1 = 0
[2] = 323.15 K; 101.33 kPa; Liquid; Vibrating tube method

Row | Compound | activity coefficient ([1]; 313.15 K) | activity coefficient ([1]; 333.15 K) | activity coefficient ([1]; 353.15 K) | activity coefficient ([1]; 363.15 K) | mass density [2]
1 | C=CCCCCCCCC [1-decene] + CCCCCCCCCCCCCC[P+](CCCCCC)(CCCCCC)CCCCCC.F[P-](F)(F)(F)(F)F | 2.81 and 2.79 | 2.29 and 2.28 | 1.85 and 1.83 | 1.74 and 1.75 | –
2 | C#CCCCCCCCC [1-decyne] + CCCCCCCCCCCCCC[P+](CCCCCC)(CCCCCC)CCCCCC.F[P-](F)(F)(F)(F)F | 2.76 and 2.84 | 2.49 and 2.32 | 1.83 and 1.85 | 1.74 and 1.72 | –
3 | C=CCCCCC [1-heptene] + CCCCCCCCCCCCCC[P+](CCCCCC)(CCCCCC)CCCCCC.F[P-](F)(F)(F)(F)F | 1.86 and 1.9 | 1.58 and 1.59 | 1.32 and 1.36 | 1.27 and 1.3 | –
4 | C#CCCCCC [1-heptyne] + CCCCCCCCCCCCCC[P+](CCCCCC)(CCCCCC)CCCCCC.F[P-](F)(F)(F)(F)F | 1.96 and 1.8 | 1.59 and 1.61 | 1.36 and 1.32 | 1.3 and 1.27 | –
5 | C#CCCCC [1-hexyne] + CCCCCCCCCCCCCC[P+](CCCCCC)(CCCCCC)CCCCCC.F[P-](F)(F)(F)(F)F | 1.66 and 1.71 | 1.42 and 1.43 | 1.16 and 1.24 | 1.16 and 1.14 | –
6 | C=CCCCCCCC [1-nonene] + CCCCCCCCCCCCCC[P+](CCCCCC)(CCCCCC)CCCCCC.F[P-](F)(F)(F)(F)F | 2.4 and 2.5 | 2.01 and 1.98 | 1.62 and 1.63 | 1.54 and 1.55 | –
7 | C#CCCCCCCC [1-nonyne] + CCCCCCCCCCCCCC[P+](CCCCCC)(CCCCCC)CCCCCC.F[P-](F)(F)(F)(F)F | 2.5 and 2.4 | 1.96 and 2.02 | 1.65 and 1.59 | 1.56 and 1.52 | –
8 | C#CCCCCCC [1-octyne] + CCCCCCCCCCCCCC[P+](CCCCCC)(CCCCCC)CCCCCC.F[P-](F)(F)(F)(F)F | 2.19 and 2.03 | 1.79 and 1.75 | 1.44 and 1.56 | 1.41 and 1.46 | –
9 | C=CCCC [1-pentene] + CCCCCCCCCCCCCC[P+](CCCCCC)(CCCCCC)CCCCCC.F[P-](F)(F)(F)(F)F | 1.42 and 1.54 | 1.24 and 1.37 | 1.07 and 1.13 | 1.05 and 1.07 | –
10 | C#CCCC [1-pentyne] + CCCCCCCCCCCCCC[P+](CCCCCC)(CCCCCC)CCCCCC.F[P-](F)(F)(F)(F)F | 1.52 and 1.44 | 1.28 and 1.27 | 1.05 and 1.15 | 1.03 and 1.09 | –
11 | CC(C)=O [acetone] + CCCCCCCCCCCCCC[P+](CCCCCC)(CCCCCC)CCCCCC.F[P-](F)(F)(F)(F)F | 0.648 and 0.694 | 0.517 and 0.507 | 0.388 and 0.404 | 0.371 and 0.381 | –
12 | c1ccccc1 [benzene] + CCCCCCCCCCCCCC[P+](CCCCCC)(CCCCCC)CCCCCC.F[P-](F)(F)(F)(F)F | 0.659 and 0.705 | 0.543 and 0.553 | 0.438 and 0.448 | 0.415 and 0.419 | –
13 | CCC(C)=O [butanone] + CCCCCCCCCCCCCC[P+](CCCCCC)(CCCCCC)CCCCCC.F[P-](F)(F)(F)(F)F | 0.735 and 0.677 | 0.542 and 0.524 | 0.41 and 0.396 | 0.373 and 0.375 | –
14 | C1CCCCCC1 [cycloheptane] + CCCCCCCCCCCCCC[P+](CCCCCC)(CCCCCC)CCCCCC.F[P-](F)(F)(F)(F)F | 1.57 and 1.6 | 1.3 and 1.33 | 1.08 and 1.1 | 1.03 and 1.05 | –
15 | C1CCCCC1 [cyclohexane] + CCCCCCCCCCCCCC[P+](CCCCCC)(CCCCCC)CCCCCC.F[P-](F)(F)(F)(F)F | 1.46 and 1.48 | 1.23 and 1.21 | 1.05 and 0.969 | 0.991 and 0.951 | –
16 | C1CCCCCCCC1 [cyclononane] + CCCCCCCCCCCCCC[P+](CCCCCC)(CCCCCC)CCCCCC.F[P-](F)(F)(F)(F)F | 1.88 and 1.89 | 1.57 and 1.6 | 1.32 and 1.33 | 1.23 and 1.3 | –

Row | Compound | activity coefficient ([1]; 313.15 K) | activity coefficient ([1]; 333.15 K) | activity coefficient ([1]; 353.15 K) | activity coefficient ([1]; 363.15 K) | mass density [2]
17 | C1CCCCCCC1 [cyclooctane] + CCCCCCCCCCCCCC[P+](CCCCCC)(CCCCCC)CCCCCC.F[P-](F)(F)(F)(F)F | 1.64 and 1.8 | 1.4 and 1.44 | 1.17 and 1.2 | 1.11 and 1.14 | –
18 | C1CCCC1 [cyclopentane] + CCCCCCCCCCCCCC[P+](CCCCCC)(CCCCCC)CCCCCC.F[P-](F)(F)(F)(F)F | 1.35 and 1.34 | 1.08 and 1.14 | 0.901 and 0.941 | 0.883 and 0.871 | –
19 | CCCCCCCCCC [decane] + CCCCCCCCCCCCCC[P+](CCCCCC)(CCCCCC)CCCCCC.F[P-](F)(F)(F)(F)F | 3.28 and 3.32 | 2.62 and 2.9 | 2.29 and 2.31 | 2.19 and 2.24 | –
20 | CCO [ethanol] + CCCCCCCCCCCCCC[P+](CCCCCC)(CCCCCC)CCCCCC.F[P-](F)(F)(F)(F)F | 2.21 and 2.31 | 1.51 and 1.49 | 0.989 and 1.01 | 0.893 and 0.911 | –
21 | CCc1ccccc1 [ethylbenzene] + CCCCCCCCCCCCCC[P+](CCCCCC)(CCCCCC)CCCCCC.F[P-](F)(F)(F)(F)F | 0.961 and 1 | 0.783 and 0.835 | 0.63 and 0.694 | 0.626 and 0.642 | –
22 | CCCCCCC [heptane] + CCCCCCCCCCCCCC[P+](CCCCCC)(CCCCCC)CCCCCC.F[P-](F)(F)(F)(F)F | 2.25 and 2.19 | 1.81 and 2 | 1.65 and 1.67 | 1.55 and 1.65 | –
23 | C=CCCCC [hex-1-ene] + CCCCCCCCCCCCCC[P+](CCCCCC)(CCCCCC)CCCCCC.F[P-](F)(F)(F)(F)F | 1.67 and 1.7 | 1.41 and 1.44 | 1.14 and 1.26 | 1.13 and 1.17 | –
24 | CCCCCC [hexane] + CCCCCCCCCCCCCC[P+](CCCCCC)(CCCCCC)CCCCCC.F[P-](F)(F)(F)(F)F | 1.96 and 2.07 | 1.69 and 1.79 | 1.48 and 1.5 | 1.43 and 1.47 | –
25 | CO [methanol] + CCCCCCCCCCCCCC[P+](CCCCCC)(CCCCCC)CCCCCC.F[P-](F)(F)(F)(F)F | 2.12 and 2.14 | 1.41 and 1.44 | 0.938 and 0.984 | 0.855 and 0.881 | –
26 | CCCCCCCCC [nonane] + CCCCCCCCCCCCCC[P+](CCCCCC)(CCCCCC)CCCCCC.F[P-](F)(F)(F)(F)F | 2.77 and 3.04 | 2.43 and 2.47 | 2.09 and 2.05 | 1.98 and 2 | –
27 | C=CCCCCCC [oct-1-ene] + CCCCCCCCCCCCCC[P+](CCCCCC)(CCCCCC)CCCCCC.F[P-](F)(F)(F)(F)F | 2.02 and 2.2 | 1.75 and 1.79 | 1.51 and 1.48 | 1.44 and 1.43 | –
28 | CCCCCCCC [octane] + CCCCCCCCCCCCCC[P+](CCCCCC)(CCCCCC)CCCCCC.F[P-](F)(F)(F)(F)F | 2.53 and 2.49 | 2.12 and 2.18 | 1.87 and 1.83 | 1.81 and 1.74 | –
29 | CCCCC [pentane] + CCCCCCCCCCCCCC[P+](CCCCCC)(CCCCCC)CCCCCC.F[P-](F)(F)(F)(F)F | 1.77 and 1.92 | 1.52 and 1.55 | 1.27 and 1.29 | 1.19 and 1.25 | –
30 | CCCc1ccccc1 [propylbenzene] + CCCCCCCCCCCCCC[P+](CCCCCC)(CCCCCC)CCCCCC.F[P-](F)(F)(F)(F)F | 1.14 and 1.1 | 0.939 and 0.949 | 0.799 and 0.779 | 0.777 and 0.735 | –
31 | Cc1ccccc1 [toluene] + CCCCCCCCCCCCCC[P+](CCCCCC)(CCCCCC)CCCCCC.F[P-](F)(F)(F)(F)F | 0.772 and 0.814 | 0.671 and 0.639 | 0.535 and 0.541 | 0.506 and 0.516 | –
32 | CCCCCCCCCCCCCC[P+](CCCCCC)(CCCCCC)CCCCCC.F[P-](F)(F)(F)(F)F [trihexyl(tetradecyl)phosphonium hexafluorophosphate(V)] | – | – | – | – | 987.15 ± 1.1 kg/m3
